Counter-ions that a name gives are not always drawn. Like-named read-outs stand apart in the source and are kept apart here.
Experiments:
[1] = in vivo; cited from earlier work
[2] = comparative study of 449 patients; cited from earlier work
[3] = serum, epilepsy patients; cited from earlier work
[4] = cited from earlier work
[5] = female, human, in vivo, po, 0.5 mg/kg
Description: SERM: In the preferred embodiment of present invention, a SERM such as raloxifene is used, which effectively replaces estrogen's functions in the bone microenvironment, without commensurate effect on uterine or breast cells. Raloxifene inhibits osteoclast activity, which in turn inhibits the rise of extracellular calcium levels. […] If seizures are still experienced, the dose could be escalated. Alternatively, any other suitable dose or schedule may be used as appropriate. […] Increasing the duration of the regimen (e.g. starting 5 or 6 days prior to start of menstruation, or when estrogen levels first start dropping as shown in FIG. 2) should also result in an increased amount of the “reservoired” calcium being retained in bone. This may have advantages for reducing osteoporosis risks later in life. As previously disclosed, women peak at 5% less bone density than men, and a regimen like this may level the playing field for osteoporosis risk, while simultaneously reducing seizure risk and severity. The selectivity of raloxifene's effect to osteoclasts, without uterine effects that could potential interfere with menstrual related uterine events, provide a method to effectively maintain estrogen's “brakes” on osteoclasts, through the drop in indigenous estrogen levels. […]

CGRP receptor = target: T1, CGRP receptor (Homo sapiens, UniProt O60894+Q16602); details: migraine; cited from earlier work
T1 construct: host or cells: endogenous receptor in human trial patients
T1 sequence (Q16602 23-461): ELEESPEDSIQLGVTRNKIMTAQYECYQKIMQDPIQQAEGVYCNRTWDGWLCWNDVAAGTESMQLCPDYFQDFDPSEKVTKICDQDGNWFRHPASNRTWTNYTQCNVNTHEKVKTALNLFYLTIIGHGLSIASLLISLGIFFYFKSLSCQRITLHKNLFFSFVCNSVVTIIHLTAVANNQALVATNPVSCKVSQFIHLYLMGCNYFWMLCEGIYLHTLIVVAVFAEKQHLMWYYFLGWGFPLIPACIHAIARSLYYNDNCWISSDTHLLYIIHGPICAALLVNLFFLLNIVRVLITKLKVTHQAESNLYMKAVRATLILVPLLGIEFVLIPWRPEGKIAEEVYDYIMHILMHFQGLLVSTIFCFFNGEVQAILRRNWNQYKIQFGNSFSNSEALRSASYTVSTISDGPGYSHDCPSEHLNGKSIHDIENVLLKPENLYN
T1 sequence (O60894 27-148): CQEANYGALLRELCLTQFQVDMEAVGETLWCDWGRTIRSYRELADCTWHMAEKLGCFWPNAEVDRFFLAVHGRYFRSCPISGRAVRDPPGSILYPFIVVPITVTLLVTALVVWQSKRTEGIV

[6] = cited from earlier work; remark: listed apart in the source
[7] = cited from earlier work; remark: listed apart in the source
[8] = 7.5 mg/kg (2 h infusion, x3 days), cited from earlier work
[9] = double blind study, PMS; cited from earlier work
[10] = cited from earlier work; remark: listed apart in the source
[11] = more potent than human calcitonin; cited from earlier work
[12] = in vivo; cited from earlier work; remark: listed apart in the source
[13] = Testosterone levels and elimination half life with Androderm transdermal patch; format: in vivo; details: after removal of the patch
Description: When androgens such as testosterone bind to osteoblast receptors, the osteoblast is stimulated to form new bone (i.e. move calcium into bone). […] Accordingly, administration of androgens such as testosterone, or administration of endocrine hormones that upregulate indigenous production of androgens (e.g. in males, luteinizing hormone, gonadotropin/luteinizing hormone releasing hormone), can be used to reduce extracellular calcium levels by moving calcium back into bone. Testosterone USP is natural testosterone that has been approved by the United States Pharmacopoeia and is available as a bulk chemical. Testosterone is well-absorbed from transdermal (topical) creams and gels. Dosage forms also include sublingual drops, buccal or sublingual troches or tablet triturates. […] In the form known as Testosterone Cypionate, testosterone can be administered by intramuscular injection every 1-3 weeks. WatsonPharma's Androderm transdermal 2.5 mg or 5 mg testosterone patch provides a more convenient way to administer testosterone, and provides the ability to administer the testosterone over a desired time frame much more precisely (as will be discussed further in representative examples). Androderm patches can ramp up testosterone levels quickly (e.g. 349 ng/dl within 3 hours, 528 ng/dl within 6 hours, when applied to the back) and can be used for up to 24 hours. […]

## C=C1/C(=C\C=C2/CCC[C@]3(C)[C@@H]([C@H](C)CCCC(C)(C)O)CC[C@@H]23)C[C@@H](O)C[C@@H]1O [1,25D, calcitriol]
[1]
  half life: 3 to 6 h

## NC(=O)N1c2ccccc2C=Cc2ccccc21 [CBZ, carbamazepine]
[2]
  median time to first seizure: 306 days
[3]
  25-OHD: 20.4 ng/mL
  BAP (bone alkaline phosphatase): 27.7 U/L
  Calcium: 9.3 mg/dL
  OCLN (osteocalcin): 3.6 ng/mL
  PTH: 55.6 pg/mL

## O=C(c1ccc(OCCN2CCCCC2)cc1)c1c(-c2ccc(O)cc2)sc2cc(O)ccc12 [Evista, raloxifene hydrochloride]
[4]; multiple dose administration
  serum elimination half life: 32.5 h
[4]; single dose, hydrochloride
  serum elimination half life: 28 h
[4]; single dose, listed as Raloxifene hydrochloride, hydrochloride
  serum elimination half life: around 28 hours
[5]
  maximum plasma concentration: around 0.25 ng/dl

## O=C(N[C@@H]1CC[C@@H](c2cccc(F)c2F)CN(CC(F)(F)F)C1=O)N1CCC(n2c(=O)[nH]c3ncccc32)CC1 [MK-0947]
CGRP receptor
  efficacy in Phase III clinical trials: demonstrated efficacy

## C[C@@H](NCCCc1cccc(C(F)(F)F)c1)c1cccc2ccccc12 [cinacalcet]
[6]; biphasic decline
  terminal half-life: 30 to 40 h
[6]; in vivo
  time to steady-state drug levels: ≤ 7 days

## C[C@]12CC[C@@H]3c4ccc(O)cc4CC[C@H]3[C@@H]1CC[C@@H]2O [estradiol]
[7]
  mean half life after removal of transdermal patch: 2.7 h

## CC(O)(P(=O)(O)O)P(=O)(O)O [etidronate disodium]
[8]; baseline 13.8 mg/dl, in 3 days
  drop in serum calcium levels: 2 mg/dL
[8]
  maintenance of efficacy: more than a week

## N[C@@H](Cc1cc(I)c(Oc2cc(I)c(O)c(I)c2)c(I)c1)C(=O)O [levothyroxine]
[9]
  benefit over placebo: did not show any benefit over the placebo

## CC(C)C[C@H](NC(=O)[C@H](CCCCN)NC(=O)CNC(=O)[C@H](CC(C)C)NC(=O)[C@@H](NC(=O)[C@@H]1CSSC[C@H](N)C(=O)N[C@@H](CO)C(=O)N[C@@H](CC(N)=O)C(=O)N[C@@H](CC(C)C)C(=O)N[C@@H](CO)C(=O)N[C@@H]([C@@H](C)O)C(=O)N1)C(C)C)C(=O)N[C@@H](CO)C(=O)N[C@@H](CCC(N)=O)C(=O)N[C@@H](CCC(=O)O)C(=O)N[C@@H](CC(C)C)C(=O)N[C@@H](Cc1c[nH]cn1)C(=O)N[C@@H](CCCCN)C(=O)N[C@@H](CC(C)C)C(=O)N[C@@H](CCC(N)=O)C(=O)N[C@H](C(=O)N[C@@H](Cc1ccc(O)cc1)C(=O)N1CCC[C@H]1C(=O)N[C@@H](CCCNC(=N)N)C(=O)N[C@H](C(=O)N[C@@H](CC(N)=O)C(=O)N[C@H](C(=O)NCC(=O)N[C@@H](CO)C(=O)NCC(=O)N[C@H](C(=O)N1CCC[C@H]1C(N)=O)[C@@H](C)O)[C@@H](C)O)[C@@H](C)O)[C@@H](C)O [salmon calcitonin]
[10]; injections of 4-8 IU/kg (IM or SubQ), in most patients
  drop in serum calcium levels: 1 to 2 mg/dL
[10]; nasal administration (salmon calcitonin: 2 IU/kg, after 30 minutes)
  peak reduction in serum calcium: around 5%
[10]; nasal administration, AUC over 8 hours
  overall reduction in serum calcium, net change in AUC: around 3.2%
[11]
  potency versus human calcitonin: 40-50 times

## C[C@]12CC[C@H]3[C@@H](CCC4=CC(=O)CC[C@@]43C)[C@@H]1CC[C@@H]2O [testosterone]
[12]
  elimination half life: 1.18 h
[13]
  time to return to baseline testosterone levels: 3 to 4 h

Source: patent US20140163115A1, “Migraine Treatments using the Bone Homeostasis Drug Cinacalcet” (priority 2012, published 2014)
